Assay results as given in the kinase profiling compilation of Christmann-Franck et al. (2016).

Columns and labels:
Assay in all cases: KINOMEscan competition binding
SRPK1 (human) = SRPK1 (human) (UniProt Q96SB4); settings: compound 1.0 µM
SYK (human) = SYK (human) (UniProt P43405); settings: compound 1.0 µM
MAP3K6 (human) = MAP3K6 (human) (UniProt O95382); settings: compound 1.0 µM
GSK3B (human) = GSK3B (human) (UniProt P49841); settings: compound 1.0 µM
STK17A (human) = STK17A (human) (UniProt Q9UEE5); settings: for kinase still bound, per cent of control: compound 1.0 µM
RPS6KA5 KD1 (human) = RPS6KA5 KD1 (human) (UniProt O75582); settings: compound 1.0 µM
LATS2 (human) = LATS2 (human) (UniProt Q9NRM7); settings: compound 1.0 µM
MTOR (human) = MTOR (human) (UniProt P42345); settings: compound 1.0 µM
TAOK2 (human) = TAOK2 (human) (UniProt Q9UL54); settings: compound 1.0 µM
Chain of TAOK2 (human) (Q9UL54 whole entry, looked up): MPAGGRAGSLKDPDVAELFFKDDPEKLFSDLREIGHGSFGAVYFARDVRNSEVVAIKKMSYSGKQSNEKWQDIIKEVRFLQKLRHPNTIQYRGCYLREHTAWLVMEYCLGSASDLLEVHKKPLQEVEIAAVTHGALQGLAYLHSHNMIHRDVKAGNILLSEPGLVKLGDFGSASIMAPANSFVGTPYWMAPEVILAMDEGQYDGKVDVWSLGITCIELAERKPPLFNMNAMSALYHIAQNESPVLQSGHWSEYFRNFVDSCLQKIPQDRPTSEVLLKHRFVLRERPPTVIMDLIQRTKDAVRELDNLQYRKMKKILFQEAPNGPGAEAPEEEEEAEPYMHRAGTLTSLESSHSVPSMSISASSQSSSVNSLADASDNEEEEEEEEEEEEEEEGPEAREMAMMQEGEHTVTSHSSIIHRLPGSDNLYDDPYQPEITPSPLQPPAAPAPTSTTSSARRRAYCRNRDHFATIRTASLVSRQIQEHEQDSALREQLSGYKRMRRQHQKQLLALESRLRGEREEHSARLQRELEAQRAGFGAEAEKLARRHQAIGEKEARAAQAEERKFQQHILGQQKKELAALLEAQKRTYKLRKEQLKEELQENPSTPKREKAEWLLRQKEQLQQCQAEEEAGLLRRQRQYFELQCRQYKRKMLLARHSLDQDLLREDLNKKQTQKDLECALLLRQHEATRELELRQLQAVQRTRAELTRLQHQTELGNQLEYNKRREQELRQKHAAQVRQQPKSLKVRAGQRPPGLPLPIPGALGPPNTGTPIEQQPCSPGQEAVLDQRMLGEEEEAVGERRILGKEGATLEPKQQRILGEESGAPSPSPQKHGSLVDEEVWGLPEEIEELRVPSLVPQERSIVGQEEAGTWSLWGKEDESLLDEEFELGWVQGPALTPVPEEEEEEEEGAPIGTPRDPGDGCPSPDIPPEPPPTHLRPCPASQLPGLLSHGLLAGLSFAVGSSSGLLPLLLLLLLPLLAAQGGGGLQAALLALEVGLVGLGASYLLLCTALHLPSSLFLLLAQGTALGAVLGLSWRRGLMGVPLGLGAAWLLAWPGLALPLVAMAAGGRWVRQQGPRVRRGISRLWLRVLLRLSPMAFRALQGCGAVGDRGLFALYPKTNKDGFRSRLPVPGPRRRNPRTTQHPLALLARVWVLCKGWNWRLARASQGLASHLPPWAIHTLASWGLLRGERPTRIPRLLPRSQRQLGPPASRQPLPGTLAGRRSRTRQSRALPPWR

BMPR1B (human) = BMPR1B (human) (UniProt O00238); settings: compound 1.0 µM
PRKD2 (human) = PRKD2 (human) (UniProt Q9BZL6); settings: compound 1.0 µM
RIPK2 (human) = RIPK2 (human) (UniProt O43353); settings: compound 1.0 µM
MARK4 (human) = MARK4 (human) (UniProt Q96L34); settings: compound 1.0 µM
CAMKK2 (human) = CAMKK2 (human) (UniProt Q96RR4); settings: compound 1.0 µM
ZAP70 (human) = ZAP70 (human) (UniProt P43403); settings: compound 1.0 µM
[1] = test system: KIT (human), P10721 [L576P]; settings: compound 1.0 µM
PIK3CA (human) = PIK3CA (human) (UniProt P42336); settings: compound 1.0 µM
EPHA2 (human) = EPHA2 (human) (UniProt P29317); settings: compound 1.0 µM
PDGFRB (human) = PDGFRB (human) (UniProt P09619); settings: compound 1.0 µM
TESK1 (human) = TESK1 (human) (UniProt Q15569); settings: compound 1.0 µM
PI4KB (human) = PI4KB (human) (UniProt Q9UBF8); settings: compound 1.0 µM
PTK2B (human) = PTK2B (human) (UniProt Q14289); settings: compound 1.0 µM
STK16 (human) = STK16 (human) (UniProt O75716); settings: compound 1.0 µM
MYLK4 (human) = MYLK4 (human) (UniProt Q86YV6); settings: for kinase still bound, per cent of control: compound 1.0 µM
SRPK3 (human) = SRPK3 (human) (UniProt Q9UPE1); settings: compound 1.0 µM
Chain of SRPK3 (human) (Q9UPE1 whole entry, looked up): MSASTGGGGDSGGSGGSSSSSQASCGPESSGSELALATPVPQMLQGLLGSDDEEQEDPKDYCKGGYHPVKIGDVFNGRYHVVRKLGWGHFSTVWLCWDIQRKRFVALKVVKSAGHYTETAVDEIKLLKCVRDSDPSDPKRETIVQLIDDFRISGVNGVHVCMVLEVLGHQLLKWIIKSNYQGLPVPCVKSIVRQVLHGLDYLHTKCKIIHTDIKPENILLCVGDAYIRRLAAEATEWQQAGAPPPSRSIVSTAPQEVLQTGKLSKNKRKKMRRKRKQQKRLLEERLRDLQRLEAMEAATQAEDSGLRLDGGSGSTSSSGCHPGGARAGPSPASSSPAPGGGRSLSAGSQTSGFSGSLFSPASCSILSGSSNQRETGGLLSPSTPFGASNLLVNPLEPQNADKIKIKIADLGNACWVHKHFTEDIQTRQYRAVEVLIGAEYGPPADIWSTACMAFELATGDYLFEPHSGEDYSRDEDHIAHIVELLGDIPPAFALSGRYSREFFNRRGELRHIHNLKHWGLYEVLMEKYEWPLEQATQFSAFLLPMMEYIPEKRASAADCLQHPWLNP

NLK (human) = NLK (human) (UniProt Q9UBE8); settings: compound 1.0 µM
CDK7 (human) = CDK7 (human) (UniProt P50613); settings: compound 1.0 µM
NUAK1 (human) = NUAK1 (human) (UniProt O60285); settings: compound 1.0 µM
HIPK4 (human) = HIPK4 (human) (UniProt Q8NE63); settings: compound 1.0 µM
Chain of HIPK4 (human) (Q8NE63 whole entry, looked up): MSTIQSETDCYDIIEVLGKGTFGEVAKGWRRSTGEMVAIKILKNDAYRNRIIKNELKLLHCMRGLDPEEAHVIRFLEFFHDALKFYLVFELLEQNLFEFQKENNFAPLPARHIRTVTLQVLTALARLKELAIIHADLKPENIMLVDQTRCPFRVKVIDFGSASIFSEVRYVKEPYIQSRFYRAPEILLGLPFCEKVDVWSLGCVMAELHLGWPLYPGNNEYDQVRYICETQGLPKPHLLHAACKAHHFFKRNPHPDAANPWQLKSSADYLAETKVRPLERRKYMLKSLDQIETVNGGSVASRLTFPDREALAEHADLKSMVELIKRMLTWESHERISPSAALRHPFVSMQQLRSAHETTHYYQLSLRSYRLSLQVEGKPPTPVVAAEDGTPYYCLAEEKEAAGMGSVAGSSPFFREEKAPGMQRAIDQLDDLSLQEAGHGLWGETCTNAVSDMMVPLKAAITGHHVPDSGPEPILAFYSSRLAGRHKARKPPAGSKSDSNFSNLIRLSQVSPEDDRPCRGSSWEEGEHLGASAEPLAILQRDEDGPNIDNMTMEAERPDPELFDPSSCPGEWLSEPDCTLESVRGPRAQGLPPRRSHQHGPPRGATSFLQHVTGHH

MAP3K7 (human) = MAP3K7 (human) (UniProt O43318); settings: compound 1.0 µM
SRPK2 (human) = SRPK2 (human) (UniProt P78362); settings: compound 1.0 µM
[2] = test system: ABL1 (human), P00519 [Y253F]; settings: compound 1.0 µM
FGFR3 (human) = FGFR3 (human) (UniProt P22607); settings: compound 1.0 µM
MAP3K15 (human) = MAP3K15 (human) (UniProt Q6ZN16); settings: compound 1.0 µM
LIMK1 (human) = LIMK1 (human) (UniProt P53667); settings: compound 1.0 µM
STK11 (human) = STK11 (human) (UniProt Q15831); settings: compound 1.0 µM
Chain of STK11 (human) (Q15831 whole entry, looked up): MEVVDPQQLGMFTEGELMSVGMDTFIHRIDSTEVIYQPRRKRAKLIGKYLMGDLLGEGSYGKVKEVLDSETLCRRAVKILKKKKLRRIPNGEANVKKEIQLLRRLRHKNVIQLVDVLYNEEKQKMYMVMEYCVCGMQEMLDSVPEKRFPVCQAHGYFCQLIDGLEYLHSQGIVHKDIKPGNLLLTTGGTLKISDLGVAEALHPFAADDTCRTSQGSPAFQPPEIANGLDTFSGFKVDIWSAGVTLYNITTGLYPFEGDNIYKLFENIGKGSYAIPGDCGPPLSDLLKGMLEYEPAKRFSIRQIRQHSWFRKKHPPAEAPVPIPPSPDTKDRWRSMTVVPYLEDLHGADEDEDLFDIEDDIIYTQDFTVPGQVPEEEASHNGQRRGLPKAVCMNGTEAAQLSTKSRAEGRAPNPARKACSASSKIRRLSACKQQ

MAP3K11 (human) = MAP3K11 (human) (UniProt Q16584); settings: compound 1.0 µM
Chain of MAP3K11 (human) (Q16584 whole entry, looked up): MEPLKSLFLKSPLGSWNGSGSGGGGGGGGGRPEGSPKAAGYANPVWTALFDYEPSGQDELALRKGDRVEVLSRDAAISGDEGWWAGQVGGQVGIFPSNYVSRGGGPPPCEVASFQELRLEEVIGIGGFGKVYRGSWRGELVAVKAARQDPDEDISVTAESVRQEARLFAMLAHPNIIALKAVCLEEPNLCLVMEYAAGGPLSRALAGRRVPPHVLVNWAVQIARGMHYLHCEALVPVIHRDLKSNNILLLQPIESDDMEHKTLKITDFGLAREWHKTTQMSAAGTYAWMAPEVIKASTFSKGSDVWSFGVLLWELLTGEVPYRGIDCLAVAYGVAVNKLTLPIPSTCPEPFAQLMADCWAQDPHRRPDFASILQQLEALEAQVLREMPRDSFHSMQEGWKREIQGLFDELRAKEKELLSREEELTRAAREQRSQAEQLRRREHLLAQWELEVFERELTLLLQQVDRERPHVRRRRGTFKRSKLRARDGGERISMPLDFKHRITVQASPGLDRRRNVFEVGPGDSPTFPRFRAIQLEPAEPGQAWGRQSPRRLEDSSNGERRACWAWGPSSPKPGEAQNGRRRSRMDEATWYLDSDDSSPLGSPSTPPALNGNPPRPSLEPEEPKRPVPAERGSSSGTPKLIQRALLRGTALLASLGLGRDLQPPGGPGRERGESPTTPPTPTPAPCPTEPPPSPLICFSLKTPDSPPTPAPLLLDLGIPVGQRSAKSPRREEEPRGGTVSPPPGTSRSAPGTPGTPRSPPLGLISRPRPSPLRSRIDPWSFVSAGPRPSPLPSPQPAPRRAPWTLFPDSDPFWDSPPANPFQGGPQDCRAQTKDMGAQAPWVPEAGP

EPHB2 (human) = EPHB2 (human) (UniProt P29323); settings: compound 1.0 µM
PAK4 (human) = PAK4 (human) (UniProt O96013); settings: compound 1.0 µM
CAMK2D (human) = CAMK2D (human) (UniProt Q13557); settings: compound 1.0 µM
[3] = test system: ABL1 (human), P00519 [E255K]; settings: compound 1.0 µM
RIOK2 (human) = RIOK2 (human) (UniProt Q9BVS4); settings: for kinase still bound, per cent of control: compound 1.0 µM
TEK (human) = TEK (human) (UniProt Q02763); settings: compound 1.0 µM

Chain of MAP3K6 (human) (O95382 whole entry, looked up): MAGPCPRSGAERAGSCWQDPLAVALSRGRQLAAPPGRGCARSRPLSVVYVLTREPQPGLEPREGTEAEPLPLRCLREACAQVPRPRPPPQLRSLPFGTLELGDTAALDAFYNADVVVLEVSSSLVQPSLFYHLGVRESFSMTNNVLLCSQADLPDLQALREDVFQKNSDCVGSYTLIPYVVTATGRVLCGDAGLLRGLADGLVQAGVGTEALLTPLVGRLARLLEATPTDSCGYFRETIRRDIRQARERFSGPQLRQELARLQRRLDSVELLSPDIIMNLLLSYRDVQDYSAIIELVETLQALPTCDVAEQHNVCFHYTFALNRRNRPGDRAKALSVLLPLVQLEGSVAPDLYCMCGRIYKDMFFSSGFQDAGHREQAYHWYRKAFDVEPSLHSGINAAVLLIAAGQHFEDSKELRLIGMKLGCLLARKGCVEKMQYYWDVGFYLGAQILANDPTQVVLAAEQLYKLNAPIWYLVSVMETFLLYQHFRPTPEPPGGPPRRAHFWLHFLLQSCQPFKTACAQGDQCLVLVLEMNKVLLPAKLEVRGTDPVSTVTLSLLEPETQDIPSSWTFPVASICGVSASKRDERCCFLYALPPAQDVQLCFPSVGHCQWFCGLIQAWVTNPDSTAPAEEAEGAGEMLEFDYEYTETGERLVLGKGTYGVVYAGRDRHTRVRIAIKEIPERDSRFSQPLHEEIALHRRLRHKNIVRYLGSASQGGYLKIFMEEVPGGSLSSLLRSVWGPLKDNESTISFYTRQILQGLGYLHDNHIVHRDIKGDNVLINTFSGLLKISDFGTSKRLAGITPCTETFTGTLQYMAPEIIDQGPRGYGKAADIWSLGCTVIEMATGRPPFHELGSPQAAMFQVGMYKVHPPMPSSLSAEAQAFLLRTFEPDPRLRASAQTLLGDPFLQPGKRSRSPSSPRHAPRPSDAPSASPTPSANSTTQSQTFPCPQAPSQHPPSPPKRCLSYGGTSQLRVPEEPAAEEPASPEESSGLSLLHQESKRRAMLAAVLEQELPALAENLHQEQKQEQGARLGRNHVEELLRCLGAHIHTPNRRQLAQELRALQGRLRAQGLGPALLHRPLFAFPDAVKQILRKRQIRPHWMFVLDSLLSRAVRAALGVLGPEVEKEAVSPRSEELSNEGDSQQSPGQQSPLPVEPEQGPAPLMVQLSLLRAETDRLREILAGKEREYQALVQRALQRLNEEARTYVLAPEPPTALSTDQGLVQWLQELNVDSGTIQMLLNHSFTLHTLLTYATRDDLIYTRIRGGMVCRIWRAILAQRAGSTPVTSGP

Work on `CN(C)C/C=C/C(=O)Nc1cccc(C(=O)Nc2ccc(Nc3nccc(/C(C#N)=C4\Nc5ccccc5S4)n3)cc2)c1` yielded a kinase still bound, per cent of control (SRPK1 (human)) of 91%, a kinase still bound, per cent of control (SYK (human)) of 85% and a kinase still bound, per cent of control (MAP3K6 (human)) of 100%. The kinase still bound, per cent of control (GSK3B (human)) was 93%, the kinase still bound, per cent of control (STK17A (human)) was 100% and the kinase still bound, per cent of control (RPS6KA5 KD1 (human)) was 100%. For the same molecule, the kinase still bound, per cent of control (LATS2 (human)) was 100%, the kinase still bound, per cent of control (MTOR (human)) was 100% and the kinase still bound, per cent of control (TAOK2 (human)) was 100%. For the same molecule, the kinase still bound, per cent of control (BMPR1B (human)) was 100%, the kinase still bound, per cent of control (PRKD2 (human)) was 100% and the kinase still bound, per cent of control (RIPK2 (human)) was 100%. The kinase still bound, per cent of control (MARK4 (human)) was 100%, the kinase still bound, per cent of control (CAMKK2 (human)) was 100% and the kinase still bound, per cent of control (ZAP70 (human)) was 81%. It also gave a kinase still bound, per cent of control [1] of 100%, a kinase still bound, per cent of control (PIK3CA (human)) of 64% and a kinase still bound, per cent of control (EPHA2 (human)) of 100%. For the same molecule, the kinase still bound, per cent of control (PDGFRB (human)) was 35%, the kinase still bound, per cent of control (TESK1 (human)) was 100% and the kinase still bound, per cent of control (PI4KB (human)) was 65%. The kinase still bound, per cent of control (PTK2B (human)) was 100%, the kinase still bound, per cent of control (STK16 (human)) was 100% and the kinase still bound, per cent of control (MYLK4 (human)) was 20%. The kinase still bound, per cent of control (SRPK3 (human)) was 82%, the kinase still bound, per cent of control (NLK (human)) was 100% and the kinase still bound, per cent of control (CDK7 (human)) was 94%. For the same molecule, the kinase still bound, per cent of control (NUAK1 (human)) was 100%, the kinase still bound, per cent of control (HIPK4 (human)) was 6% and the kinase still bound, per cent of control (MAP3K7 (human)) was 58%. It also gave a kinase still bound, per cent of control (SRPK2 (human)) of 100%, a kinase still bound, per cent of control [2] of 100% and a kinase still bound, per cent of control (FGFR3 (human)) of 100%. For the same molecule, the kinase still bound, per cent of control (MAP3K15 (human)) was 100%, the kinase still bound, per cent of control (LIMK1 (human)) was 100% and the kinase still bound, per cent of control (STK11 (human)) was 90%. It also gave a kinase still bound, per cent of control (MAP3K11 (human)) of 100%, a kinase still bound, per cent of control (EPHB2 (human)) of 77% and a kinase still bound, per cent of control (PAK4 (human)) of 100%. For the same molecule, the kinase still bound, per cent of control (CAMK2D (human)) was 100%, the kinase still bound, per cent of control [3] was 100% and the kinase still bound, per cent of control (RIOK2 (human)) was 18%. It also gave a kinase still bound, per cent of control (TEK (human)) of 100%.
Work on `CN(C)C/C=C/C(=O)Nc1cccc(C(=O)Nc2ccc(Nc3nccc(-c4cccnc4)n3)cc2)c1` yielded a kinase still bound, per cent of control (SRPK1 (human)) of 50%, a kinase still bound, per cent of control (SYK (human)) of 66% and a kinase still bound, per cent of control (MAP3K6 (human)) of 100%. It also gave a kinase still bound, per cent of control (GSK3B (human)) of 78%, a Kd (STK17A (human)) of 100 nM and a kinase still bound, per cent of control (STK17A (human)) of 1.3%. The kinase still bound, per cent of control (RPS6KA5 KD1 (human)) was 100%, the kinase still bound, per cent of control (LATS2 (human)) was 73% and the kinase still bound, per cent of control (MTOR (human)) was 100%. For the same molecule, the kinase still bound, per cent of control (TAOK2 (human)) was 54%, the kinase still bound, per cent of control (BMPR1B (human)) was 43% and the kinase still bound, per cent of control (PRKD2 (human)) was 100%. It also gave a kinase still bound, per cent of control (RIPK2 (human)) of 55%, a kinase still bound, per cent of control (MARK4 (human)) of 40% and a kinase still bound, per cent of control (CAMKK2 (human)) of 40%. It also gave a kinase still bound, per cent of control (ZAP70 (human)) of 100%, a kinase still bound, per cent of control [1] of 2.2% and a kinase still bound, per cent of control (PIK3CA (human)) of 75%. It also gave a kinase still bound, per cent of control (EPHA2 (human)) of 86%, a kinase still bound, per cent of control (PDGFRB (human)) of 6% and a kinase still bound, per cent of control (TESK1 (human)) of 88%. It also gave a kinase still bound, per cent of control (PI4KB (human)) of 71%, a kinase still bound, per cent of control (PTK2B (human)) of 100% and a kinase still bound, per cent of control (STK16 (human)) of 15%. For the same molecule, the kinase still bound, per cent of control (MYLK4 (human)) was 34%, the kinase still bound, per cent of control (SRPK3 (human)) was 28% and the kinase still bound, per cent of control (NLK (human)) was 81%. It also gave a kinase still bound, per cent of control (CDK7 (human)) of 20%, a kinase still bound, per cent of control (NUAK1 (human)) of 37% and a kinase still bound, per cent of control (HIPK4 (human)) of 18%. For the same molecule, the kinase still bound, per cent of control (MAP3K7 (human)) was 34%, the kinase still bound, per cent of control (SRPK2 (human)) was 70% and the kinase still bound, per cent of control [2] was 39%. The kinase still bound, per cent of control (FGFR3 (human)) was 78%, the kinase still bound, per cent of control (MAP3K15 (human)) was 88% and the kinase still bound, per cent of control (LIMK1 (human)) was 71%. For the same molecule, the kinase still bound, per cent of control (STK11 (human)) was 67%, the kinase still bound, per cent of control (MAP3K11 (human)) was 67% and the kinase still bound, per cent of control (EPHB2 (human)) was 90%. The kinase still bound, per cent of control (PAK4 (human)) was 79%, the kinase still bound, per cent of control (CAMK2D (human)) was 100% and the kinase still bound, per cent of control [3] was 43%. For the same molecule, the Kd (RIOK2 (human)) was 30 nM, the kinase still bound, per cent of control (RIOK2 (human)) was 2.2% and the kinase still bound, per cent of control (TEK (human)) was 98%.
`Cc1cc(NC(=O)c2cccc(NC(=O)/C=C/CN(C)C)c2)ccc1Nc1nccc(-c2cccnc2)n1` was tested, and the kinase still bound, per cent of control (SRPK1 (human)) was 99%, the kinase still bound, per cent of control (SYK (human)) was 100% and the kinase still bound, per cent of control (MAP3K6 (human)) was 92%. For the same molecule, the kinase still bound, per cent of control (GSK3B (human)) was 100%, the kinase still bound, per cent of control (STK17A (human)) was 24% and the kinase still bound, per cent of control (RPS6KA5 KD1 (human)) was 100%. It also gave a kinase still bound, per cent of control (LATS2 (human)) of 74%, a kinase still bound, per cent of control (MTOR (human)) of 100% and a kinase still bound, per cent of control (TAOK2 (human)) of 73%. The kinase still bound, per cent of control (BMPR1B (human)) was 92%, the kinase still bound, per cent of control (PRKD2 (human)) was 100% and the kinase still bound, per cent of control (RIPK2 (human)) was 99%. It also gave a kinase still bound, per cent of control (MARK4 (human)) of 97%, a kinase still bound, per cent of control (CAMKK2 (human)) of 93% and a kinase still bound, per cent of control (ZAP70 (human)) of 79%. It also gave a kinase still bound, per cent of control [1] of 100%, a kinase still bound, per cent of control (PIK3CA (human)) of 100% and a kinase still bound, per cent of control (EPHA2 (human)) of 100%. It also gave a kinase still bound, per cent of control (PDGFRB (human)) of 4.7%, a kinase still bound, per cent of control (TESK1 (human)) of 100% and a kinase still bound, per cent of control (PI4KB (human)) of 82%. For the same molecule, the kinase still bound, per cent of control (PTK2B (human)) was 87%, the kinase still bound, per cent of control (STK16 (human)) was 61% and the Kd (MYLK4 (human)) was 4000 nM. The kinase still bound, per cent of control (MYLK4 (human)) was 9.6%, the kinase still bound, per cent of control (SRPK3 (human)) was 70% and the kinase still bound, per cent of control (NLK (human)) was 70%. It also gave a kinase still bound, per cent of control (CDK7 (human)) of 39%, a kinase still bound, per cent of control (NUAK1 (human)) of 100% and a kinase still bound, per cent of control (HIPK4 (human)) of 4%. For the same molecule, the kinase still bound, per cent of control (MAP3K7 (human)) was 61%, the kinase still bound, per cent of control (SRPK2 (human)) was 100% and the kinase still bound, per cent of control [2] was 71%. The kinase still bound, per cent of control (FGFR3 (human)) was 100%, the kinase still bound, per cent of control (MAP3K15 (human)) was 82% and the kinase still bound, per cent of control (LIMK1 (human)) was 74%. The kinase still bound, per cent of control (STK11 (human)) was 100%, the kinase still bound, per cent of control (MAP3K11 (human)) was 91% and the kinase still bound, per cent of control (EPHB2 (human)) was 100%. The kinase still bound, per cent of control (PAK4 (human)) was 100%, the kinase still bound, per cent of control (CAMK2D (human)) was 100% and the kinase still bound, per cent of control [3] was 100%. It also gave a Kd (RIOK2 (human)) of 120 nM, a kinase still bound, per cent of control (RIOK2 (human)) of 10% and a kinase still bound, per cent of control (TEK (human)) of 76%.
